The source made the active and inactive calls. The rule behind the calls is not given here.
Key:
[1] = system: Mus musculus; assay: Protection against alcoholic liver disease in NIAAA C57BL/6J mouse model assessed as reduction in serum IL1-beta level at 1 to 2.5 mg/kg, po preadministered with 1 to 4 % of alcohol for 10 days with subsequent compound addition from day 6 to 11 and further administered with 31.25 % alcohol on day 11 and measured after 9 hrs by ELISA; format: functional, organism-based; conditions: dose 1-2.5 mg/kg, time 5.0 day
[2] = Selectivity ratio for inhibition of PDE7A (unknown origin) using FAM-cyclic-3',5'-AMP as substrate to inhibition of PDE4B1 (unknown origin) using FAM-cyclic-3',5'-AMP as substrate
[3] = system: Mus musculus; assay: Protection against alcoholic liver disease in NIAAA C57BL/6J mouse model assessed as improvement of liver injury at 1 to 2.5 mg/kg, po preadministered with 1 to 4 % of alcohol for 10 days with subsequent compound addition from day 6 to 11 and further administered with 31.25 % alcohol on day 11 and measured after 9 hrs by H&E staining based light microscopic analysis; format: functional, organism-based; conditions: dose 1-2.5 mg/kg, time 5.0 day
[4] = system: Mus musculus; assay: Protection against alcohol-induced motor impairment in C57BL/6J mouse model assessed as short recovery time by measuring latency to falling off at 1 mg/kg, po preadministered with compound every 24 hrs for 3 times followed by alcohol administration 30 mins post last dose and further treated with compound for 3 days followed by alcohol administration 30 mins post last dose and measured at 2 to 20 mins by rotarod test; format: functional, organism-based; conditions: time 8702-8720 min
[5] = Selectivity ratio for inhibition of PDE9A (unknown origin) using FAM-cyclic-3',5'-AMP as substrate to inhibition of PDE4D7 (unknown origin) using FAM-cyclic-3',5'-AMP as substrate
[6] = AUC (0 to infinity) in Sprague-Dawley rat at 2 mg/kg, iv measured after 24 hrs by LC-MS analysis; format: ADME, organism-based; conditions: in vivo
[7] = target: High affinity 3',5'-cyclic-AMP phosphodiesterase 7A (Homo sapiens) (UniProt Q13946); assay: Inhibition of PDE7A (unknown origin) using FAM-cyclic-3',5'-AMP as substrate at 10 uM incubated for 1 hrs by fluorescence polarization based IMAP assay relative to control
[8] = system: Mus musculus; assay: Protection against alcoholic liver disease in NIAAA C57BL/6J mouse model assessed as decrease in serum AST level at 1 to 2.5 mg/kg, po preadministered with 1 to 4 % of alcohol for 10 days with subsequent compound addition from day 6 to 11 and further administered with 31.25 % alcohol on day 11 and measured after 9 hrs by absorbance based plate analyzer; format: functional, organism-based; conditions: dose 1-2.5 mg/kg, time 5.0 day
[9] = target: cGMP-inhibited 3',5'-cyclic phosphodiesterase 3B (Homo sapiens) (UniProt Q13370); assay: Inhibition of PDE3B (unknown origin) using FAM-cyclic-3',5'-AMP as substrate at 10 uM incubated for 1 hrs by fluorescence polarization based IMAP assay relative to control
[10] = system: Mus musculus; assay: Protection against alcohol use disorder in C57BL/6J mouse model assessed as decrease in alcohol intake at 1 to 2.5 mg/kg, po pre-trained with alcohol and water for 42 days with subsequent compound addition from day 22 to day 42 followed by 3.5 hrs of darkness and compound administration for 30 mins followed by water replacement with alcohol for 4 hrs on day 46 by Drink-in-Dark test; format: functional, organism-based; conditions: dose 1-2.5 mg/kg, time 23.0 day
[11] = AUC (0 to infinity) in Sprague-Dawley rat at 10 mg/kg, po measured after 24 hrs by LC-MS analysis; format: ADME, organism-based; conditions: in vivo
[12] = target: 3',5'-cyclic-AMP phosphodiesterase 4D (Homo sapiens, UniProt Q08499); assay: Inhibition of PDE4D7 (unknown origin) using FAM-cyclic-3',5'-AMP as substrate incubated for 1 hrs by fluorescence polarization based IMAP assay
[13] = system: Mus musculus; assay: Protection against alcohol-induced motor impairment in C57BL/6J mouse model assessed as increase in distance travelled at 1 to 2.5 mg/kg, po preadministered with compound every 24 hrs for 3 times followed by alcohol administration 30 mins post last dose and further treated with compound for 3 days followed by alcohol administration 30 mins post last dose and measured at 2 to 20 mins by open field test; format: functional, organism-based; conditions: dose 1-2.5 mg/kg, time 8702-8720 min
[14] = Chemical stability of compound in aqueous solution at pH >10 measured after 48 hrs; format: physicochemical; conditions: buffer
[15] = Drug concentration in Sprague-Dawley rat plasma at 10 mg/kg, po administered as single dose for 2 hrs by LC-MS analysis; format: ADME, organism-based
[16] = Tmax in Sprague-Dawley rat at 10 mg/kg, po measured after 24 hrs by LC-MS analysis; format: ADME, organism-based; conditions: in vivo
[17] = Drug concentration in Sprague-Dawley rat brain at 10 mg/kg, po administered as single dose for 2 hrs by LC-MS analysis; format: ADME, organism-based; conditions: read-out: Ct
[18] = AUC (0 to t) in Sprague-Dawley rat at 2 mg/kg, iv measured after 24 hrs by LC-MS analysis; format: ADME, organism-based; conditions: in vivo
[19] = system: Mus musculus; assay: Protection against alcoholic liver disease in NIAAA C57BL/6J mouse model assessed as reduction in liver IL-6 mRNA level at 1 to 2.5 mg/kg, po preadministered with 1 to 4 % of alcohol for 10 days with subsequent compound addition from day 6 to 11 and further administered with 31.25 % alcohol on day 11 and measured after 9 hrs by RT-qPCR analysis; format: functional, organism-based; conditions: dose 1-2.5 mg/kg, time 5.0 day
[20] = Selectivity ratio for inhibition of PDE8A1 (unknown origin) using FAM-cyclic-3',5'-AMP as substrate to inhibition of PDE4D7 (unknown origin) using FAM-cyclic-3',5'-AMP as substrate
[21] = system: SH-SY5Y; assay: Cytotoxicity against human SH-SY5Y cells assessed as reduction in cell viability incubated for 48 hrs by MTT assay; format: toxicity, cell-based
[22] = target: High affinity cGMP-specific 3',5'-cyclic phosphodiesterase 9A (Homo sapiens) (UniProt O76083); assay: Inhibition of PDE9A (unknown origin) using FAM-cyclic-3',5'-AMP as substrate at 10 uM incubated for 1 hrs by fluorescence polarization based IMAP assay relative to control
[23] = system: Mus musculus; assay: Protection against alcohol-induced sedation in C57BL/6J mouse model assessed as reduction in sleep time at 1 to 2.5 mg/kg, po preadministered with compound every 24 hrs for 3 times followed by alcohol administration 30 mins post last dose; format: functional, organism-based; conditions: dose 1-2.5 mg/kg, time 72.5 hrs
[24] = Drug concentration in Sprague-Dawley rat liver at 10 mg/kg, po administered as single dose for 1 hrs by LC-MS analysis; format: ADME, organism-based; conditions: read-out: Ct
[25] = Drug concentration in Sprague-Dawley rat brain at 10 mg/kg, po administered as single dose for 1 hrs by LC-MS analysis; format: ADME, organism-based; conditions: read-out: Ct
[26] = target: High affinity cAMP-specific and IBMX-insensitive 3',5'-cyclic phosphodiesterase 8A (Homo sapiens) (UniProt O60658); assay: Inhibition of PDE8A1 (unknown origin) using FAM-cyclic-3',5'-AMP as substrate at 10 uM incubated for 1 hrs by fluorescence polarization based IMAP assay relative to control
[27] = Oral bioavailability in Sprague-Dawley rat at 10 mg/kg measured after 24 hrs by LC-MS analysis; format: ADME, organism-based; conditions: in vivo

Sequence of High affinity cGMP-specific 3',5'-cyclic phosphodiesterase 9A (Homo sapiens) (O76083 whole entry): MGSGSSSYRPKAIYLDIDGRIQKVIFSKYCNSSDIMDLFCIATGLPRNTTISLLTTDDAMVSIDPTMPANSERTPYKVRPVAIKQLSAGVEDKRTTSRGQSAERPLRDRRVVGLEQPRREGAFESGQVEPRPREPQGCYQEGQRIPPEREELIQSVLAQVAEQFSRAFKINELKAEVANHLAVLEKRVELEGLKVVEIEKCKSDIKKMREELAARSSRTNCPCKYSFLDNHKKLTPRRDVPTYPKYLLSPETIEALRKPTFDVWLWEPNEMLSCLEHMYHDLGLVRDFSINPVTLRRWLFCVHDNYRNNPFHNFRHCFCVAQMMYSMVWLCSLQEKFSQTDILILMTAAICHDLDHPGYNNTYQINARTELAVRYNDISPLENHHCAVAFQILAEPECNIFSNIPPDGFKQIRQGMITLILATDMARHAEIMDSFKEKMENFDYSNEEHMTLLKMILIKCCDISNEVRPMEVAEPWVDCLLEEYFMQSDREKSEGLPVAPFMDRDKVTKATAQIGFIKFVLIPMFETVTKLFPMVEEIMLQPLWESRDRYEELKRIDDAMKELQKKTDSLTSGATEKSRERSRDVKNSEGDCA
Sequence of High affinity cAMP-specific and IBMX-insensitive 3',5'-cyclic phosphodiesterase 8A (Homo sapiens) (O60658 whole entry): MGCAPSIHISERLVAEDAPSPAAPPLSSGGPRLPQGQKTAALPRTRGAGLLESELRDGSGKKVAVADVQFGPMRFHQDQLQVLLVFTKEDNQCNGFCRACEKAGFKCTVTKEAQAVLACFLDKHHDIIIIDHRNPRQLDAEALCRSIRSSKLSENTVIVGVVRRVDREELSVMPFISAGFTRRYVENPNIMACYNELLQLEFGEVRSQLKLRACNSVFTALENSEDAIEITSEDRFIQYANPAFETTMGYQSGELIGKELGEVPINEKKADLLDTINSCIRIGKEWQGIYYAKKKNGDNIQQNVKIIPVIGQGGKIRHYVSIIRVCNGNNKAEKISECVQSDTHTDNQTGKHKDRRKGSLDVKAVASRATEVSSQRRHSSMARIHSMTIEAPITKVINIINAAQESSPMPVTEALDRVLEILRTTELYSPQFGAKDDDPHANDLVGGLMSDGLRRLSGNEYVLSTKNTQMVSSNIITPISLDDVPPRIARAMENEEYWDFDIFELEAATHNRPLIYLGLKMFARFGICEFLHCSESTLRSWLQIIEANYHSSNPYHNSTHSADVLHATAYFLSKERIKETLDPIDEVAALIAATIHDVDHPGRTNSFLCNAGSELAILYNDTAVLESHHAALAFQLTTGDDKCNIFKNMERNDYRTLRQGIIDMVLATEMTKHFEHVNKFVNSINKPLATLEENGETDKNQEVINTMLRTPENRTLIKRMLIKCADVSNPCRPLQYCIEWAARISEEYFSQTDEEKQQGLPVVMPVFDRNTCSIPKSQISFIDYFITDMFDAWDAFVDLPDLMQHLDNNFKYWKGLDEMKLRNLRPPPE
Sequence of 3',5'-cyclic-AMP phosphodiesterase 4D (Q08499 whole entry): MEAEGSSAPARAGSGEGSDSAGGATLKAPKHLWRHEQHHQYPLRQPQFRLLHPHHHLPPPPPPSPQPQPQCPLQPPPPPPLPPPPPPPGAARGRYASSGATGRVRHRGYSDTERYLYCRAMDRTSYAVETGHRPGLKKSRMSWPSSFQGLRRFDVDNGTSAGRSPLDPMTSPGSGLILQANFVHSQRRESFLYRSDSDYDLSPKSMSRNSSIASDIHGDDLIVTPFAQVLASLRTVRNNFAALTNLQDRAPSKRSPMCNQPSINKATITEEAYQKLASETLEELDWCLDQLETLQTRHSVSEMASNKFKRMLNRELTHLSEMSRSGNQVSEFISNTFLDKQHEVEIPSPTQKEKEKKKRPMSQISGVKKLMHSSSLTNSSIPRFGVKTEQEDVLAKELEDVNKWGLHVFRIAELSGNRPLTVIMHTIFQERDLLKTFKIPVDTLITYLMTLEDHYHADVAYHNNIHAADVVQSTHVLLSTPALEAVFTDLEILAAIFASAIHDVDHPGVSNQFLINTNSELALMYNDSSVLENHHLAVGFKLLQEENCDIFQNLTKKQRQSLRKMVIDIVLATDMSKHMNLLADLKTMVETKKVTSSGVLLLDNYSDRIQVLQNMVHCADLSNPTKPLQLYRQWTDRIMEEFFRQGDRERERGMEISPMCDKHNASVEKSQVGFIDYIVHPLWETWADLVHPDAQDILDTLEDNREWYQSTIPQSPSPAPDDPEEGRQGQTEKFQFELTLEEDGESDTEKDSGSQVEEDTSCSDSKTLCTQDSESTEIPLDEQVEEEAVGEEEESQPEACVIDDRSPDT
Sequence of High affinity 3',5'-cyclic-AMP phosphodiesterase 7A (Homo sapiens) (Q13946 whole entry): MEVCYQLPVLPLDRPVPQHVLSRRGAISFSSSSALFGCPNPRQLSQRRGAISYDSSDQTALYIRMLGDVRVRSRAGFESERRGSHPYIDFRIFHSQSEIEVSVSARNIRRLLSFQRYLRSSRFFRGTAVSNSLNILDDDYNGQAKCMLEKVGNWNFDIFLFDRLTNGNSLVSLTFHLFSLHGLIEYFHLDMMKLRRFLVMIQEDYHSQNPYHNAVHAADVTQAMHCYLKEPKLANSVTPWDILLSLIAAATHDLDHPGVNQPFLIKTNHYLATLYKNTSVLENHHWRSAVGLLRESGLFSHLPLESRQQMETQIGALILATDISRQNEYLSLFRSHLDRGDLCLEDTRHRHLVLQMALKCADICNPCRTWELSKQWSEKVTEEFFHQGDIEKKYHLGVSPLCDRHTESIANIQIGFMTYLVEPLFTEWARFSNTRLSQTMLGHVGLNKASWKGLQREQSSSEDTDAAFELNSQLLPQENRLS
Sequence of cGMP-inhibited 3',5'-cyclic phosphodiesterase 3B (Homo sapiens) (Q13370 whole entry, looked up): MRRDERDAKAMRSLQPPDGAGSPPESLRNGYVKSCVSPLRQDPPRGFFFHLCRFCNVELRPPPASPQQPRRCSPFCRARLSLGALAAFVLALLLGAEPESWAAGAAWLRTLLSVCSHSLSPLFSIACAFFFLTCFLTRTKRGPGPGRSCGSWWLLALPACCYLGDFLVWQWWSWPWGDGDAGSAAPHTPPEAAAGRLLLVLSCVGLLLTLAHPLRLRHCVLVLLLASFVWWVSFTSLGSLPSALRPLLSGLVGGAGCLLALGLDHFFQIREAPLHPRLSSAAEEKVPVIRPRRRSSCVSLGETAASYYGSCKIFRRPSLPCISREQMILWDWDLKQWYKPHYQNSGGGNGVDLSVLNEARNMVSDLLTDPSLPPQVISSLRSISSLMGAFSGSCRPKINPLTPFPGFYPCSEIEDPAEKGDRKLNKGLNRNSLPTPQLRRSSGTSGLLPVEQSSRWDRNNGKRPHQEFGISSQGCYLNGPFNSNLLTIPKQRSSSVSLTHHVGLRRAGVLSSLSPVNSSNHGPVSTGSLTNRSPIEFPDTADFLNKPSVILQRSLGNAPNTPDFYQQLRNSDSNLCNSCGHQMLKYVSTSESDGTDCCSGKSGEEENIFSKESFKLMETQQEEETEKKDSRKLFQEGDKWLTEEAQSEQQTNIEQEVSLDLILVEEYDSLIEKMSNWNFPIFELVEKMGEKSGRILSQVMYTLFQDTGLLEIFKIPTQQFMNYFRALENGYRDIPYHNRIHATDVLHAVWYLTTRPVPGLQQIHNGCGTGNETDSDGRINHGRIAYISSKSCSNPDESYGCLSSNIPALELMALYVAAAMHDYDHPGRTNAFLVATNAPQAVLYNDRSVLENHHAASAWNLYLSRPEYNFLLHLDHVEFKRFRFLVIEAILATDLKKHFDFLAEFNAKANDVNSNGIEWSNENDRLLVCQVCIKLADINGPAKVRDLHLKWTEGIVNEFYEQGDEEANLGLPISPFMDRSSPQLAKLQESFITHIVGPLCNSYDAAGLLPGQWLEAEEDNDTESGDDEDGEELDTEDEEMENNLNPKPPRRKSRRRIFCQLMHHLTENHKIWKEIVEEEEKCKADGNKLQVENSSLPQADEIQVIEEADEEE

Structure (SMILES): CCOc1nc(Cl)cc2c1cnn2CCCC(=O)O
- Activity [1]: Active
- Selectivity ratio [2]: > 267
- Activity [3]: Active
- Activity [4]: inactive
- Selectivity ratio [5]: > 267
- AUC(0-inf) [6]: 143 µg·h/mL
- inhibition [7]: 11%
- Activity [8]: Active
- inhibition [9]: 10%
- Activity [10]: Active
- AUC(0-inf) [11]: 828 µg·h/mL
- IC50 [12]: 37.4 nM
- Activity [13]: Active
- Stability [14]: Stable
- concentration at 2 h [15]: 27000 ng/mL
- Tmax [16]: 4 h
- concentration at 2 h [17]: 441 ng/g
- AUC(0-t) at 24 h [18]: 142 µg·h/mL
- Activity [19]: Active
- Selectivity ratio [20]: > 267
- Activity [21]: Non-Toxic
- inhibition [22]: 9%
- Activity [23]: Active
- concentration at 1 h [24]: 11200 ng/g
- concentration at 1 h [25]: 322 ng/g
- inhibition [26]: 9%
- bioavailability [27]: 94.1%

— ChEMBL document CHEMBL5532675, “Discovery of 4-Ethoxy-6-chloro-5-azaindazoles as Novel PDE4 Inhibitors for the Treatment of Alcohol Use Disorder and Alcoholic Liver Diseases” (J Med Chem, 2024)
